Data on one compound can be found in patent US8703424B2, “Predicting human developmental toxicity of pharmaceuticals using human stem-like cells and metabolomics” (Stemina Biomarker Discovery, Inc., priority 2010, dated 2014).

This experiment relates to WA09 hES cells. The experiment is described as follows: Metabolomics of hES cells dosed in 96-well plates at three dose levels (Example 8). The experiment is classed as cell-based, human. As to the method: For metabolomic analysis, hES cells were dosed at the three concentrations for each chemical compound based on the cell viability data. Media controls (no cells), dosed media controls (no cells with dosed media), and controls (cells with undosed media) were also included in the experimental design (FIG. 1). Spent media was collected following a three day dosing period. The collected media was immediately quenched in acetonitrile then stored at −80° C. until later analysis.
In both the viability and metabolomics steps, 96-well plates were seeded with 250,000 cells/well of WA09 hES cells. These cells were “dosed” for three days. Each day for three days, the spent media was removed and replaced with […] media containing the designated compound. Each compound stock solution was made in DMSO and each final solution used to dose hES cells contained 0.1% DMSO. […]
Samples were analyzed in both ESI positive and ESI negative modes on an Agilent QTOF instrument, operated in high resolution, extended dynamic range mode. […]
Peak picking and feature creation were performed using the open source software library XCMS. Mass features (peaks) were detected using the centwave algorithm. […]
This filter selects against spurious low abundance features at the level of detection that are not reproducibly measured, and features that may not have peak shapes amenable to reproducible detection and/or integration. […]

As to `CN(C)CCOC(C)(c1ccccc1)c1ccccn1` (centres unmarked) [Doxylamine], for the setting “at least two dose levels”, the “Dimethylarginine (DMA) change” value is reported as “increased secretion”. Also, the Malic acid change result (high dose levels) is “extreme fold changes”.
